What was measured:
[1] = Weight loss in diet-induced obese mice: chronic dosing; assay type: in vivo, mouse; conditions: for body weight: 0.3 nmol/kg s.c. every day
Protocol: (§1) Compound 1 was evaluated for its ability to reduce foot intake and body weight and improve glucose homeostasis on repeat dosing in male DIO C57Bl/6 mice over a period of 8 days. Male DIO C57BL/6N mice (20 weeks of age, 14 weeks on high fat diet) were obtained from Taconic Laboratory. […] Animals were acclimated to the facility for at least one week prior to the start of the experiment.
(§2) The day prior to dosing, mice were grouped based on individual body weights. At 3:00-4:00 pm for each of the next 8 days, animals and food intake were weighed. […] After 8 days, mice are fasted for 5 hours and then given a 2 g/kg bolus of glucose orally at t=0. At t=0, 30, 60, 90, and 120 minutes post glucose challenge blood glucose is measured and at t=0, 30, and 90 minutes blood in drawn to measure plasma insulin. […] All data are presented as the mean±SEM (FIG. 7, FIG. 8, and Tables 8-11).

[2] = OGTT after 8 days of treatment in DIO mice; assay type: in vivo, mouse; conditions: 0.3 nmol/kg every day
Protocol: as §1, §2

[3] = Single dose, food intake and body weight in Sprague-Dawley rats; assay type: in vivo, rat; parameters: body weight change: unit not given here; conditions: single dose 0.3 nmol/kg s.c. (Dulaglutide); for absolute body weight: in g (unit assumed)
Protocol: Compound 1 was evaluated for its ability to reduce foot intake and body weight in Sprague-Dawley after a single dose. The animals were obtained from Charles River Labs (Wilmington, Mass.) at 200-225 g body weight and used within one week of delivery. They were housed one per cage on alpha dry bedding and a plastic tube for enrichment in a temperature-controlled room with 12-hour light/dark cycle. […] Animal weights were taken and recorded for each rat prior to dosing.
Body weights and food intake were measured 1, 2 and 3 days after dosing and the percentages of weight loss and reduction in food intake were calculated. […] All data are presented as the mean±SEM (Tables 18-20).

For Dulaglutide, the “fed Blood Glucose” value ([1]; 0.3 nmol/kg every day, after 8 days of treatment) was 114 ± 13 mg/dL, the “body weight” value ([1]; Day 0) was 45.9 ± 0.6 g and the “body weight” value ([1]; Day 1) was 44.1 ± 0.6 g. The “body weight” value ([1]; Day 2) was 42.2 ± 0.6 g, the “body weight” value ([1]; Day 3) was 40.6 ± 0.6 g and the “body weight” value ([1]; Day 4) was 39.3 ± 0.6 g. For the same substance, the “body weight” value ([1]; Day 5) was 38.1 ± 0.7 g, the “body weight” value ([1]; Day 6) was 37.1 ± 0.8 g and the “body weight” value ([1]; Day 7) was 36.4 ± 1.0 g. For the same substance, the “body weight” value ([1]; Day 8) was 36.5 ± 1.1 g, the “body weight” value ([1]; Day −1) was 46.3 ± 0.6 g and the “blood glucose (mg/dL) during OGTT” value ([2]; 0 min after glucose challenge) was 76 ± 9 mg/dL. For the same substance, the “insulin (ng/mL) during OGTT” value ([2]; 0 min after glucose challenge) was 0.6 ± 0.1 ng/mL, the “blood glucose (mg/dL) during OGTT” value ([2]; 30 min after glucose challenge) was 151 ± 14 mg/dL and the “insulin (ng/mL) during OGTT” value ([2]; 30 min after glucose challenge) was 1.7 ± 0.2 ng/mL. The “blood glucose (mg/dL) during OGTT” value ([2]; 60 min after glucose challenge) was 174 ± 17 mg/dL, the “blood glucose (mg/dL) during OGTT” value ([2]; 90 min after glucose challenge) was 104 ± 10 mg/dL and the “insulin (ng/mL) during OGTT” value ([2]; 90 min after glucose challenge) was 0.7 ± 0.2 ng/mL. The “blood glucose (mg/dL) during OGTT” value ([2]; 120 min after glucose challenge) was 119 ± 9 mg/dL, the “glucose Delta AUC (mg/dl/120 min)” value ([2]; OGTT) was 6668 ± 1846 mg/dl/120 min and the “glucose Total AUC (mg/dl/120 min)” value ([2]; OGTT) was 15758 ± 1054 mg/dl/120 min. For the same substance, the body weight change ([3]; Day 0) was 0.0 ± 0.0, the daily food intake ([3]; Day 0) was 26.6 ± 0.8 and the absolute body weight ([3]; Day 0) was 270.3 ± 3.0. It also gave a body weight change ([3]; Day 1) of 10.6 ± 1.6, a daily food intake ([3]; Day 1) of 27.3 ± 1.2 and an absolute body weight ([3]; Day 1) of 280.8 ± 4.2. The body weight change ([3]; Day 2) was 22.5 ± 0.8, the daily food intake ([3]; Day 2) was 30.0 ± 0.7 and the absolute body weight ([3]; Day 2) was 292.47 ± 3.6. The body weight change ([3]; Day 3) was 28.7 ± 0.6, the daily food intake ([3]; Day 3) was 30.1 ± 0.7 and the absolute body weight ([3]; Day 3) was 299.0 ± 3.3. For the same substance, the body weight change ([3]; Day −1) was −6.3 ± 0.8, the absolute body weight ([3]; Day −1) was 264.0 ± 3.1 and the “Total Food Consumption” value ([3]; over three days) was 87.4 ± 2.0.

From patent US10968265B2, “Antibody-coupled cyclic peptide tyrosine tyrosine compounds as modulators of neuropeptide Y receptors” (Janssen Pharmaceutica NV, priority 2016, dated 2021)
